Here are results for 15 compounds from US20250163048A1 (Tango Therapeutics, Inc., priority 2022, published 2025).

For assay [1], the system named is HAP1 MTAP-deleted cell line. As to the kind of experiment: SDMA in-cell western assay, HAP1 MTAP-deleted. Particulars: for IC50 / IC90: Homo sapiens; for Hap1 MTAP intact/deleted ratio: IC50 ratio between HAP1 MTAP-intact and HAP1 MTAP-deleted cell line.
Assay [2] deals with HAP1 MTAP-intact cell line. As to the kind of experiment: SDMA in-cell western assay, HAP1 MTAP-intact. The conditions noted are these: Homo sapiens.
Another assay concerns MTAP-deleted cell line. Description: viability assay for the MTAP-deleted cell line. Type of assay: cell-based. Particulars: Homo sapiens, HAP1, viability assay.
Setting [3] is: HAP1, read-out: Hap1 MTAP deleted IC50, SDMA in-cell western assay, HAP1 MTAP-deleted cell line.
Setting [4] is: HAP1, read-out: Hap1 MTAP deleted IC90, SDMA in-cell western assay, HAP1 MTAP-deleted cell line.
The mark [5] stands for this setting: HAP1, read-out: Hap1 MTAP intact IC50, SDMA in-cell western assay, HAP1 MTAP-intact cell line.
The mark [6] stands for this setting: HAP1, read-out: Hap1 MTAP deleted IC50, SDMA in-cell western, HAP1 MTAP-deleted cell line.
[7] abbreviates: HAP1, read-out: Hap1 MTAP deleted IC90, SDMA in-cell western, HAP1 MTAP-deleted cell line.
Where [8] appears, read: HAP1, read-out: Hap1 MTAP intact IC50, SDMA in-cell western, HAP1 MTAP-intact cell line.

Structures are written as SMILES. Where two headings read alike, the source gives them in different places.

On to `C[C@@H]1CCCN(C(=O)C(=O)Nc2cnc(N)c3cn[nH]c23)[C@H]1c1ccccc1` (racemic) [Compound 258, N-(4-Amino-1H-pyrazolo[4,3-c]pyridin-7-yl)-2-(3-methyl-2-phenyl-1-piperidyl)-2-oxo-acetamide], for which the half-maximal inhibitory concentration (IC50) in assay [1] (setting [3]) is 0.005 to 0.05 µM; in assay [2] (setting [5]), more than 0.05 µM; in the assay with MTAP-deleted cell line, 0.1 to 1 µM. In addition, the 90% effect concentration (IC90) in assay [1] (setting [4]) is 0.075 to 0.125 µM. Moreover, the “Hap1 MTAP intact/deleted ratio” value in assay [1] (SDMA in-cell western assay) is recorded as “A (“A” indicates an IC50 ratio greater than or equal to 30 fold)”.

Take `COc1cncc([C@H]2CC[C@H](C)CN2C(=O)C(=O)Nc2cnc(N)c3cn[nH]c23)c1` (racemic) [Compound 261, N-(4-Amino-1H-pyrazolo[4,3-c]pyridin-7-yl)-2-oxo-2-[rac-(2R,5S)-2-(5-methoxy-3-pyridyl)-5-methyl-1-piperidyl]acetamide]: the IC50 is less than 0.005 µM in assay [1] (setting [3]), more than 0.05 µM in assay [2] (setting [5]) and less than 0.1 µM in the assay on MTAP-deleted cell line. The IC90 in assay [1] (setting [4]) was less than 0.075 µM. In addition, the “Hap1 MTAP intact/deleted ratio” value in assay [1] (SDMA in-cell western assay) is on record as “A (“A” indicates an IC50 ratio greater than or equal to 30 fold)”.

With `C[C@H]1CC[C@H](c2ccc(CCN(C)C)cc2)N(C(=O)C(=O)Nc2cnc(N)c3cn[nH]c23)C1` (racemic) [Compound 263, N-(4-Amino-2H-pyrazolo[4,3-c]pyridin-7-yl)-2-oxo-2-[rac-(2R,5S)-2-[4-[2-(dimethylamino)ethyl]phenyl]-5-methyl-1-piperidyl]acetamide], the half-maximal inhibitory concentration (IC50) is less than 0.005 µM in assay [1] (setting [3]), 0.005 to 0.05 µM in assay [2] (setting [5]) and less than 0.1 µM with MTAP-deleted cell line. Also, the IC90 in assay [1] (setting [4]) was less than 0.075 µM. Further, the “Hap1 MTAP intact/deleted ratio” value in assay [1] (SDMA in-cell western assay) is “C (“C” indicates an IC50 ratio of less than 15 fold)”.

Take `C[C@H]1CC[C@H](c2ccc3cc(Cl)cnc3c2)N(C(=O)C(=O)Nc2cnc(N)c3cn[nH]c23)C1` (racemic) [Compound 264, N-(4-Amino-1H-pyrazolo[4,3-c]pyridin-7-yl)-2-oxo-2-[rac-(2R,5S)-2-(3-chloro-7-quinolyl)-5-methyl-1-piperidyl]acetamide]: the concentration for half-maximal inhibition (IC50) in assay [1] (setting [3]) is less than 0.005 µM; in assay [2] (setting [5]) it was 0.005 to 0.05 µM; with MTAP-deleted cell line, less than 0.1 µM. In addition, in assay [1] (setting [4]), the 90% effect concentration (IC90) is less than 0.075 µM. Besides, in assay [1] (SDMA in-cell western assay), the “Hap1 MTAP intact/deleted ratio” value was “B (“B” indicates an IC50 ratio greater than or equal to 15 fold but lower than 30 fold)”.

With `C[C@H]1CC[C@H](c2ccc3c(c2)CCN(C)C3)N(C(=O)C(=O)Nc2cnc(N)c3cn[nH]c23)C1` (racemic) [Compound 265, N-(4-Amino-1H-pyrazolo[4,3-c]pyridin-7-yl)-2-oxo-2-[rac-(2R,5S)-5-methyl-2-(2-methyl-3,4-dihydro-1H-isoquinolin-6-yl)-1-piperidyl]acetamide], the IC50 is less than 0.005 µM in assay [1] (setting [3]), 0.005 to 0.05 µM in assay [2] (setting [5]) and less than 0.1 µM in the assay with MTAP-deleted cell line. Besides, in assay [1] (setting [4]), the IC90 was less than 0.075 µM. The “Hap1 MTAP intact/deleted ratio” value in assay [1] (SDMA in-cell western assay) is “C (“C” indicates an IC50 ratio of less than 15 fold)”.

Regarding `CC[C@@H]1CC[C@@H](C)N(C(=O)C(=O)Nc2cnc(N)c3cn[nH]c23)C1` (racemic) [Compound 269, N-(4-Amino-1H-pyrazolo[4,3-c]pyridin-7-yl)-2-oxo-2-[rac-(2R,5R)-5-ethyl-2-methyl-1-piperidyl]acetamide], the half-inhibitory concentration (IC50) in assay [1] (setting [3]) is 0.005 to 0.05 µM; in assay [2] (setting [5]) it was more than 0.05 µM; with MTAP-deleted cell line, 0.1 to 1 µM. Besides, the IC90 in assay [1] (setting [4]) is more than 0.125 µM. For the same compound, in assay [1] (SDMA in-cell western assay), the “Hap1 MTAP intact/deleted ratio” value was “A (“A” indicates an IC50 ratio greater than or equal to 30 fold)”.

`C[C@@H]1CCC[C@H](c2ccccc2)N1C(=O)C(=O)Nc1cnc(N)c2cn[nH]c12` (racemic) [Compound 270, N-(4-Amino-1H-pyrazolo[4,3-c]pyridin-7-yl)-2-oxo-2-[rac-(2R,6R)-2-methyl-6-phenyl-1-piperidyl]acetamide]: the IC50 in assay [1] (setting [3]) was less than 0.005 µM; in assay [2] (setting [5]), more than 0.05 µM; with MTAP-deleted cell line, less than 0.1 µM. For the same compound, the concentration for an effect of 90% (IC90) in assay [1] (setting [4]) is less than 0.075 µM. Besides, in assay [1] (SDMA in-cell western assay), the “Hap1 MTAP intact/deleted ratio” value was “A (“A” indicates an IC50 ratio greater than or equal to 30 fold)”.

Take `C[C@H]1CC[C@H](c2cccc3c2CCO3)N(C(=O)C(=O)Nc2cnc(N)c3cn[nH]c23)C1` (racemic) [Compound 282, N-(4-Amino-1H-pyrazolo[4,3-c]pyridin-7-yl)-2-oxo-2-[rac-(2R,5S)-2-(2,3-dihydrobenzofuran-4-yl)-5-methyl-1-piperidyl]acetamide]: the IC50 in assay [1] (setting [3]) is less than 0.005 µM; in assay [2] (setting [5]), 0.005 to 0.05 µM; in the assay on MTAP-deleted cell line it was less than 0.1 µM. Also, the 90% effect concentration (IC90) in assay [1] (setting [4]) was less than 0.075 µM. In addition, the “Hap1 MTAP intact/deleted ratio” value in assay [1] (SDMA in-cell western assay) was “A (“A” indicates an IC50 ratio greater than or equal to 30 fold)”.

In the case of `C[C@H]1CC[C@H](c2ccc3sc([C@H]4CCCN(C)C4)nc3c2)N(C(=O)C(=O)Nc2cncc3c(N)nccc23)C1` (relative stereo) [Compound 10, N-(8-amino-2,7-naphthyridin-4-yl)-2-oxo-2-[(2R,5S)-5-methyl-2-[2-[rel-(3S)-1-methyl-3-piperidyl]-1,3-benzothiazol-5-yl]-1-piperidyl]acetamide], the IC50 in assay [1] (setting [6]) was less than 0.005 µM; in assay [2] (setting [8]), more than 0.05 µM; in the assay on MTAP-deleted cell line, less than 0.1 µM. Further, the IC90 in assay [1] (setting [7]) is less than 0.075 µM. Also, the “Hap1 MTAP intact/deleted ratio” value in assay [1] (SDMA in-cell western) is reported as “A (“A” indicates an IC50 ratio greater than or equal to 30 fold)”.

As to `C[C@H]1CC[C@H](c2ccc3sc([C@@H]4CCN(C)C[C@@H]4C)nc3c2)N(C(=O)C(=O)Nc2cncc3cn[nH]c23)C1` (relative stereo) [Compound 12, 2-oxo-N-(1H-pyrazolo[4,3-c]pyridin-7-yl)-2-[(2R,5S)-5-methyl-2-[2-[rel-(3R,4R)-1,3-dimethyl-4-piperidyl]-1,3-benzothiazol-5-yl]-1-piperidyl]acetamide], the 50% inhibitory concentration (IC50) was less than 0.005 µM in assay [1] (setting [6]), more than 0.05 µM in assay [2] (setting [8]) and less than 0.1 µM with MTAP-deleted cell line. Besides, the IC90 in assay [1] (setting [7]) is less than 0.075 µM. Moreover, the “Hap1 MTAP intact/deleted ratio” value in assay [1] (SDMA in-cell western) is on record as “B (“B” indicates an IC50 ratio greater than or equal to 15 fold but lower than 30 fold)”.

Turning to `C[C@@H]1CC[C@@H](c2ccc3cn(C)nc3c2)N(C(=O)C(=O)Nc2cncc3cn[nH]c23)C1` (relative stereo) [Compound 13, 2-[rel-(2S,5R)-5-methyl-2-(2-methylindazol-6-yl)-1-piperidyl]-2-oxo-N-(1H-pyrazolo[4,3-c]pyridin-7-yl)acetamide], the IC50 in assay [1] (setting [6]) is 0.005 to 0.05 µM; in assay [2] (setting [8]), more than 0.05 µM; in the assay with MTAP-deleted cell line, 0.1 to 1 µM. In addition, the IC90 in assay [1] (setting [7]) is 0.075 to 0.125 µM. Moreover, the “Hap1 MTAP intact/deleted ratio” value in assay [1] (SDMA in-cell western) is listed as “B (“B” indicates an IC50 ratio greater than or equal to 15 fold but lower than 30 fold)”.

In the case of `C[C@H]1CC[C@H](c2ccc3sc([C@H]4CCN(C)C[C@@H]4C)nc3c2)N(C(=O)C(=O)Nc2ccn3ccnc3c2)C1` (relative stereo) [Compound 48, N-imidazo[1,2-a]pyridin-7-yl-2-oxo-2-[(2R,5S)-5-methyl-2-[2-[rel-(3R,4S)-1,3-dimethyl-4-piperidyl]-1,3-benzothiazol-5-yl]-1-piperidyl]acetamide], the IC50 in assay [1] (setting [6]) was less than 0.005 µM; in assay [2] (setting [8]) it was more than 0.05 µM; in the assay on MTAP-deleted cell line, less than 0.1 µM. The concentration for an effect of 90% (IC90) in assay [1] (setting [7]) was less than 0.075 µM. In assay [1] (SDMA in-cell western), the “Hap1 MTAP intact/deleted ratio” value is recorded as “A (“A” indicates an IC50 ratio greater than or equal to 30 fold)”.

For `C[C@H]1CC[C@H](c2ccc3sc([C@H]4CCN(C)C[C@H]4C)nc3c2)N(C(=O)C(=O)Nc2ccn3ccnc3c2)C1` (relative stereo) [Compound 58, N-imidazo[1,2-a]pyridin-7-yl-2-oxo-2-[(2R,5S)-5-methyl-2-[2-[rel-(3S,4S)-1,3-dimethyl-4-piperidyl]-1,3-benzothiazol-5-yl]-1-piperidyl]acetamide], the 50% inhibitory concentration (IC50) in assay [1] (setting [6]) was less than 0.005 µM; in assay [2] (setting [8]), more than 0.05 µM; in the assay on MTAP-deleted cell line it was less than 0.1 µM. The concentration for an effect of 90% (IC90) in assay [1] (setting [7]) was less than 0.075 µM. In addition, the “Hap1 MTAP intact/deleted ratio” value in assay [1] (SDMA in-cell western) was “A (“A” indicates an IC50 ratio greater than or equal to 30 fold)”.

`C[C@H]1CC[C@H](c2ccc3sc([C@@H]4CCN(C)C[C@H]4C)nc3c2)N(C(=O)C(=O)Nc2cncc3cn[nH]c23)C1` (relative stereo) [Compound 71, 2-oxo-N-(1H-pyrazolo[4,3-c]pyridin-7-yl)-2-[(2R,5S)-5-methyl-2-[2-[rel-(3S,4R)-1,3-dimethyl-4-piperidyl]-1,3-benzothiazol-5-yl]-1-piperidyl]acetamide]: the results for the half-maximal inhibitory concentration (IC50) (in assay [1] (setting [6]); in assay [2] (setting [8]); in the assay on MTAP-deleted cell line) were less than 0.005 µM, 0.005 to 0.05 µM and less than 0.1 µM, respectively. The concentration for an effect of 90% (IC90) in assay [1] (setting [7]) was less than 0.075 µM. In assay [1] (SDMA in-cell western), the “Hap1 MTAP intact/deleted ratio” value was “C (“C” indicates an IC50 ratio of less than 15 fold)”.

As to `C[C@H]1CC[C@H](c2ccc3sc([C@@H](C)CN(C)C)nc3c2)N(C(=O)C(=O)Nc2cncc3c(N)nccc23)C1` (relative stereo) [Compound 76, N-(8-amino-2,7-naphthyridin-4-yl)-2-((2R,5S)-2-(2-((S)-1-(dimethylamino)propan-2-yl)benzo[d]thiazol-5-yl)-5-methylpiperidin-1-yl)-2-oxoacetamide], the half-maximal inhibitory concentration (IC50) is 0.005 to 0.05 µM in assay [1] (setting [6]), more than 0.05 µM in assay [2] (setting [8]) and less than 0.1 µM in the assay with MTAP-deleted cell line. For the same compound, the IC90 in assay [1] (setting [7]) was less than 0.075 µM. Also, in assay [1] (SDMA in-cell western), the “Hap1 MTAP intact/deleted ratio” value was “A (“A” indicates an IC50 ratio greater than or equal to 30 fold)”.
